Activity calls are given as the source filed them.
What was measured:
[1] = molecular target: Peroxisome proliferator-activated receptor gamma/Nuclear receptor coactivator 2 (Homo sapiens, UniProt P37231); assay: (§1) TR-FRET dose response biochemical High Throughput Screening assay for agonists of the steroid receptor coactivator 2 (SRC-2) recruitment by the peroxisome proliferator-activated receptor gamma (PPAR gamma): non-selective agonists. [Related pubchem assays: 1297, 1032 ]; type: functional
[2] = molecular target: Peroxisome proliferator-activated receptor gamma/Nuclear receptor coactivator 1 (Homo sapiens, UniProt P37231); assay: as §1, with “1 (SRC-1)” for “2 (SRC-2)”, “assays (depositor defined):AID1300, AID1808, AID504735, AID631]” for “assays: 1297, 1032 ]”; type: protein assay
[3] = molecular target: Peroxisome proliferator-activated receptor gamma/Nuclear receptor coactivator 3 (Homo sapiens, UniProt P37231); assay: as §1, with “3 (SRC-3)” for “2 (SRC-2)”, “1301 (Confirmation screen.), 1048 (Primary screen.)]” for “1297, 1032 ]”; type: functional
[4] = molecular target: DNA dC->dU-editing enzyme APOBEC-3G (Homo sapiens, UniProt Q9HC16); type: functional;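 also: Dose-response counterscreen measuring inhibition of APOBEC3G DNA deaminase activity, run while confirming APOBEC3A inhibitors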
[5] = molecular target: DNA dC->dU-editing enzyme APOBEC-3A (Homo sapiens, UniProt P31941); assay: Dose Response confirmation of small molecule APOBEC3A DNA Deaminase Inhibitors via a fluorescence-based single-stranded DNA deaminase assay. [Related pubchem assays (depositor defined):AID493011, AID493024]; type: functional
cells = type: functional
[6] = Vero E6 cell cytotoxicity, dose response, cytotoxicity control for non-replicating M. tuberculosis project, secondary assay (AID 492998); type: functional, VeroE6; conditions: Vero C1008
[7] = loss of viability in HepG2 cells – cell-based, CellTiter-Glo, cherry-picked, cytotoxicity control for Shn3 inhibitor project, dose response (AID 624134); type: functional
[8] = NIH3T3 cell viability loss – ATP luminescence, mouse fibroblasts, counter-screen, dose response (AID 2010); type: functional, cell-based;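 also: cells exposed to compound for about 90 hours before reading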
[9] = viability of PTEN-deleted HCT116 cells – cell-based, HCT116 PTEN knockout, dose response (AID 1047); type: functional;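 also: HCT116 colon tumor cells with PTEN knocked out; cells exposed to compound for 60 hours before readout; potency for loss of cell viability measured by luminescence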
[10] = non-specific 3'UTR reporter inhibition in Clone20-Shn3RL – cell-based, Renilla luciferase, cherry-picked, counter-screen for Shn3 inhibitor project, dose response (AID 624133); type: functional
INS1 = assay: INS-1E survival protection against cytokine death – cell-based, luminescence, retest, dose response (AID 449756); type: functional; conditions: Rattus norvegicus;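 also: cell death triggered by IL-1 beta plus TNF-alpha plus IFN-gamma mixture; protective hits raise ATP signal compared with cytokine alone wells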
[11] = THP-1 cell cytotoxicity, dose response, cytotoxicity control for non-replicating M. tuberculosis project (AID 489025); type: functional
[12] = viability of HCT116 lacking mutant beta-catenin – cell-based, human colon tumor, dose response (AID 1045); type: functional;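 also: HCT116 colon tumor cells with beta catenin knocked out; cells exposed to compound for 60 hours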
[13] = HepG2 cell cytotoxicity, dose response, cytotoxicity control for non-replicating M. tuberculosis project (AID 489018); type: functional; conditions: Mycobacterium tuberculosis
[14] = Trypanosoma cruzi growth suppression in host cells – NIH3T3 host cells, beta-gal luminescence, confirmation (AID 2044); type: functional, cell-based;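 also: intracellular parasites grown in NIH/3T3 mouse fibroblasts as host cells; luminescent beta-galactosidase reporter signal from transgenic T. cruzi replicating inside host cells; inhibitors lower the luminescence signal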
H4 = assay: Luminescence Cell-Based Dose Response HTS to Identify Activators of 5'UTR Stem-Loop Driven Prion Protein mRNA Translation in H4 Neuroglioblastoma Cells. [Related pubchem assays: 1829 (Project Summary), 1814 (Primary HTS)]; type: functional; conditions: Homo sapiens
[15] = Luminescence Cell-Based Dose Response HTS to Identify Activators of Luciferase Translation or Activity in H4 […] Cells. [Related pubchem assays: 1829 (Project Summary), 1814 (Primary HTS)]; type: functional
[16] = Luminescence Cell-Based Dose Confirmation HTS to Identify Activators of 5'UTR Stem-Loop Driven Alpha-Synuclein mRNA Translation in H4 Neuroglioblastoma Cells. [Related pubchem assays: 1829 (Project Summary), 1814 (Primary HTS)]; type: functional
[17] = reduction of Shn3 3'UTR-driven luciferase in osteoblasts – cell-based, Clone20 osteoblasts, firefly luciferase, cherry-picked, dose response (AID 624132); type: functional;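 also: firefly luciferase luminescence from reporter carrying the Shn3 3'UTR in osteoblasts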
Coagulation factor XII = molecular target: T1, Coagulation factor XII (Homo sapiens, UniProt P00748); type: functional;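 also: activated factor XIIa alpha cleaving a fluorogenic AMC peptide substrate; inhibitor potency from loss of enzyme activity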
T1 sequence (P00748 whole entry): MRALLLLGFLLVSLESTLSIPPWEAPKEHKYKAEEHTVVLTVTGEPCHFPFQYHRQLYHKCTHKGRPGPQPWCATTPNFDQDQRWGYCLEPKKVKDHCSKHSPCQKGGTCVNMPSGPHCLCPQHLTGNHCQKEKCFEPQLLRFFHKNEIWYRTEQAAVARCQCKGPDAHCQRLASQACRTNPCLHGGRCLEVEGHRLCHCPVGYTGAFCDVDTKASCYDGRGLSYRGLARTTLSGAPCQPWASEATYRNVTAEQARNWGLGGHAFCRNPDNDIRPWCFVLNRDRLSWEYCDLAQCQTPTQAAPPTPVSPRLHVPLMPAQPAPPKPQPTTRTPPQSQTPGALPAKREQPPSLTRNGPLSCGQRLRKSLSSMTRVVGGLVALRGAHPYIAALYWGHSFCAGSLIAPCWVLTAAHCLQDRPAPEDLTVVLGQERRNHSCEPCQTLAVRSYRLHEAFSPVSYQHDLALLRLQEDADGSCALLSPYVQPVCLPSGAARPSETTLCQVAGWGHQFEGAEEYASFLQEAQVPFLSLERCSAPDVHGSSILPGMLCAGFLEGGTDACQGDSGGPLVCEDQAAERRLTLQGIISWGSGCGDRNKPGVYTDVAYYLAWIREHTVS

[18] = molecular target: Glyceraldehyde-3-phosphate dehydrogenase (Homo sapiens, UniProt P04406)
[19] = molecular target: T2, Alkaline phosphatase, tissue-nonspecific isozyme (Homo sapiens, UniProt P05186); assay: potency against alkaline phosphatase TNAP – biochemical, luminescent, dose response, SAR follow-up (AID 1056)
T2 sequence (P05186 whole entry): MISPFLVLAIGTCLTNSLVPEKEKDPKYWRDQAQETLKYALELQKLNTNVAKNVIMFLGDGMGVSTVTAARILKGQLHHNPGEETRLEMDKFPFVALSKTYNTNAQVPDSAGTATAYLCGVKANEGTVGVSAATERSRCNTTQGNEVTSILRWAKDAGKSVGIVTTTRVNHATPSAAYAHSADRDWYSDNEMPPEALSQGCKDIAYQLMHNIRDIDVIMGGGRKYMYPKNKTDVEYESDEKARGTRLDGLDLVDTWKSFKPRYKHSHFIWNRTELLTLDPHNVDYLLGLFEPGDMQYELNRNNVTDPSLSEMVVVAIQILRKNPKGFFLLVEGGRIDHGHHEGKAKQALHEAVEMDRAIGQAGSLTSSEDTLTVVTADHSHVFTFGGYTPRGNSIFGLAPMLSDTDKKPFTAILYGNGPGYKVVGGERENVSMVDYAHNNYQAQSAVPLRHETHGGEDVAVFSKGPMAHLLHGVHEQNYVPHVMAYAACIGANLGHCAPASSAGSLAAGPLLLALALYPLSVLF

[20] = Luminescence Cell-Based Dose Retest to Confirm Inhibitors of Cancer Stem Cells. [Related pubchem assays (depositor defined):AID2717, AID2721]; type: functional; conditions: Homo sapiens
[21] = molecular target: T3, Ubiquitin-conjugating enzyme E2 N (Homo sapiens, UniProt P61088); type: functional;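 also: Dose-response confirmation in a TR-FRET assay detecting UBC13-driven polyubiquitin chain formation, inhibition measured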
T3 sequence (P61088 whole entry): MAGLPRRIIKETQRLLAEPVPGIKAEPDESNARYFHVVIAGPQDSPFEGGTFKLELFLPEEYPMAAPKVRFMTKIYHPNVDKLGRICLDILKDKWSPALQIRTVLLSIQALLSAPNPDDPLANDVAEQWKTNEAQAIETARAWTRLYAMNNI

[22] = molecular target: Eukaryotic translation initiation factor 4E (Mus musculus, UniProt P63073); assay: blockers of eIF4G binding by eIF4E – biochemical, TR-FRET, dose response (AID 855); type: functional;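 also: potency for disrupting eIF4E binding to eIF4GI seen as loss of FRET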
Chain of Eukaryotic translation initiation factor 4E (P63073 whole entry): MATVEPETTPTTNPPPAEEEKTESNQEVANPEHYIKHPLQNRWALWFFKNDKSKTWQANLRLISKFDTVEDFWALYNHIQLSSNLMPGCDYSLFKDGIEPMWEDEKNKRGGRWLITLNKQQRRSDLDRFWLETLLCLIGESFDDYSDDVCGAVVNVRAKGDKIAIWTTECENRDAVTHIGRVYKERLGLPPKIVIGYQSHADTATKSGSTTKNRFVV

Chain of Glyceraldehyde-3-phosphate dehydrogenase (P04406 whole entry): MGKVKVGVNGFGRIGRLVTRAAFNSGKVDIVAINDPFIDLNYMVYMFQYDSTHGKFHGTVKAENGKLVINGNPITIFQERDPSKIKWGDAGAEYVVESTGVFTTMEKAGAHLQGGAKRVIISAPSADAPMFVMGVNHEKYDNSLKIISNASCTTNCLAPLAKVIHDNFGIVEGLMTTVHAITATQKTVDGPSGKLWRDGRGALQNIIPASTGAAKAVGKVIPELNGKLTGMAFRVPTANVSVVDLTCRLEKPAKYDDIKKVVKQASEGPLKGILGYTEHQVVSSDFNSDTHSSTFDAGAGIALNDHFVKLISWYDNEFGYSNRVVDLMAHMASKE
Chain of DNA dC->dU-editing enzyme APOBEC-3G (Q9HC16 whole entry): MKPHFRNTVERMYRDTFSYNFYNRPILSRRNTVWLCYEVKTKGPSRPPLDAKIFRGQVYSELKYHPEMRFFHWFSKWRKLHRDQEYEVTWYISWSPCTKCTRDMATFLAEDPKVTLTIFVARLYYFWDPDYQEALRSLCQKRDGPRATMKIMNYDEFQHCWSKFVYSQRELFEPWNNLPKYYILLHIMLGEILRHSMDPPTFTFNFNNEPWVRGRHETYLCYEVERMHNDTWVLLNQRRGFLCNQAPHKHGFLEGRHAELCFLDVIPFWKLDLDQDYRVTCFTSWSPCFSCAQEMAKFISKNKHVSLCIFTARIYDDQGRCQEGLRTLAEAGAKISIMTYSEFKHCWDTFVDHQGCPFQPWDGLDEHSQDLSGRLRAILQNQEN
Chain of Peroxisome proliferator-activated receptor gamma/Nuclear receptor coactivator 1 (P37231 whole entry): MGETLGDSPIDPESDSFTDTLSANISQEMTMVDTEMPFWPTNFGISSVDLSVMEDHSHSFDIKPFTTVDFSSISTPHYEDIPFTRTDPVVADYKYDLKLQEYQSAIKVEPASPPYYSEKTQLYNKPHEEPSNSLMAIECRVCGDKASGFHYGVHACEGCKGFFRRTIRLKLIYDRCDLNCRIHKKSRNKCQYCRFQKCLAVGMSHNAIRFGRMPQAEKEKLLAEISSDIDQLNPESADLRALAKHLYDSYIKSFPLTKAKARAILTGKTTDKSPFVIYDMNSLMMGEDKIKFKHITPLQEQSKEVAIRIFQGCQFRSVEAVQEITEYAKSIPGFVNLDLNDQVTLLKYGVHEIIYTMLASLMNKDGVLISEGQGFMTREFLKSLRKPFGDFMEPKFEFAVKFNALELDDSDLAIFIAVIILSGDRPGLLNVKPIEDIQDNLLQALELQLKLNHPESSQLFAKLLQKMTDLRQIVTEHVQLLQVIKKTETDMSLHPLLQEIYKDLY
Chain of Peroxisome proliferator-activated receptor gamma/Nuclear receptor coactivator 1 (Q15788 whole entry, further chain): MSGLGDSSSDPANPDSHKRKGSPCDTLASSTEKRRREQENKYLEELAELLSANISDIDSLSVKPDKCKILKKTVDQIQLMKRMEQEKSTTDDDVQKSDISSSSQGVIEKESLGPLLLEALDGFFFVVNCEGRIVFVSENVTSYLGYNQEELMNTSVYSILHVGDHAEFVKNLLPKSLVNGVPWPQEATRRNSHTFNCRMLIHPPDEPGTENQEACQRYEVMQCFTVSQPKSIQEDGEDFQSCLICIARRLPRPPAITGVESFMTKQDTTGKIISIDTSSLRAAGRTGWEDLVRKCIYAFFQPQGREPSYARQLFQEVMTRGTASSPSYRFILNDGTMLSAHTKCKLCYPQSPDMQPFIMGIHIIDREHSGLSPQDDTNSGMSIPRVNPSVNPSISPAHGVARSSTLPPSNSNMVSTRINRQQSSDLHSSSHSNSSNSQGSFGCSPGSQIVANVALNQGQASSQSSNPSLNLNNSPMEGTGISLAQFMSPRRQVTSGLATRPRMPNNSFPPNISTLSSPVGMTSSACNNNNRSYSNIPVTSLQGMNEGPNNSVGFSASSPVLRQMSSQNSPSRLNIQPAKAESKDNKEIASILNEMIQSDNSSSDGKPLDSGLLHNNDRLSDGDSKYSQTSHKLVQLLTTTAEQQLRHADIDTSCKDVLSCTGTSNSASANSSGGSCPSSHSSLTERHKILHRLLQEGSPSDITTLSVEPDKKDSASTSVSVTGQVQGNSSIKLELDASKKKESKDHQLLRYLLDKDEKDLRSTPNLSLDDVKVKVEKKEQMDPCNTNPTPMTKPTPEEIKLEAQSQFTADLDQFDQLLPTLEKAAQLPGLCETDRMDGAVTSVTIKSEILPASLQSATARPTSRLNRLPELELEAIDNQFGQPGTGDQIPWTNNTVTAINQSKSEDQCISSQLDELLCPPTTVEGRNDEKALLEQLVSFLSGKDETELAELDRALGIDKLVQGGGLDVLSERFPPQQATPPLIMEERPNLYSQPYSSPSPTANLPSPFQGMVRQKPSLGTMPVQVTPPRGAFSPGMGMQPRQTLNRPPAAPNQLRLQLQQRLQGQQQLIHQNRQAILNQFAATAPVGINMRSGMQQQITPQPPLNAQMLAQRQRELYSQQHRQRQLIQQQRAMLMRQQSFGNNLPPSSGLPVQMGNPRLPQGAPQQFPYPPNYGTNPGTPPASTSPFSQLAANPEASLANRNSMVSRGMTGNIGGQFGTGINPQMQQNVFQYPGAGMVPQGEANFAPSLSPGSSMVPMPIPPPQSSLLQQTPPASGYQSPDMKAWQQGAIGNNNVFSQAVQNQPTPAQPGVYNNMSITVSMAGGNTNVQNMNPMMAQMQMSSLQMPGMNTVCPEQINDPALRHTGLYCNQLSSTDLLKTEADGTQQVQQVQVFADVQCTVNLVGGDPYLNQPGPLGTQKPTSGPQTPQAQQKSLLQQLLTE
Chain of Peroxisome proliferator-activated receptor gamma/Nuclear receptor coactivator 2 (P37231 whole entry): as the sequence (P37231 whole entry) above
Chain of Peroxisome proliferator-activated receptor gamma/Nuclear receptor coactivator 2 (Q15596 whole entry, further chain): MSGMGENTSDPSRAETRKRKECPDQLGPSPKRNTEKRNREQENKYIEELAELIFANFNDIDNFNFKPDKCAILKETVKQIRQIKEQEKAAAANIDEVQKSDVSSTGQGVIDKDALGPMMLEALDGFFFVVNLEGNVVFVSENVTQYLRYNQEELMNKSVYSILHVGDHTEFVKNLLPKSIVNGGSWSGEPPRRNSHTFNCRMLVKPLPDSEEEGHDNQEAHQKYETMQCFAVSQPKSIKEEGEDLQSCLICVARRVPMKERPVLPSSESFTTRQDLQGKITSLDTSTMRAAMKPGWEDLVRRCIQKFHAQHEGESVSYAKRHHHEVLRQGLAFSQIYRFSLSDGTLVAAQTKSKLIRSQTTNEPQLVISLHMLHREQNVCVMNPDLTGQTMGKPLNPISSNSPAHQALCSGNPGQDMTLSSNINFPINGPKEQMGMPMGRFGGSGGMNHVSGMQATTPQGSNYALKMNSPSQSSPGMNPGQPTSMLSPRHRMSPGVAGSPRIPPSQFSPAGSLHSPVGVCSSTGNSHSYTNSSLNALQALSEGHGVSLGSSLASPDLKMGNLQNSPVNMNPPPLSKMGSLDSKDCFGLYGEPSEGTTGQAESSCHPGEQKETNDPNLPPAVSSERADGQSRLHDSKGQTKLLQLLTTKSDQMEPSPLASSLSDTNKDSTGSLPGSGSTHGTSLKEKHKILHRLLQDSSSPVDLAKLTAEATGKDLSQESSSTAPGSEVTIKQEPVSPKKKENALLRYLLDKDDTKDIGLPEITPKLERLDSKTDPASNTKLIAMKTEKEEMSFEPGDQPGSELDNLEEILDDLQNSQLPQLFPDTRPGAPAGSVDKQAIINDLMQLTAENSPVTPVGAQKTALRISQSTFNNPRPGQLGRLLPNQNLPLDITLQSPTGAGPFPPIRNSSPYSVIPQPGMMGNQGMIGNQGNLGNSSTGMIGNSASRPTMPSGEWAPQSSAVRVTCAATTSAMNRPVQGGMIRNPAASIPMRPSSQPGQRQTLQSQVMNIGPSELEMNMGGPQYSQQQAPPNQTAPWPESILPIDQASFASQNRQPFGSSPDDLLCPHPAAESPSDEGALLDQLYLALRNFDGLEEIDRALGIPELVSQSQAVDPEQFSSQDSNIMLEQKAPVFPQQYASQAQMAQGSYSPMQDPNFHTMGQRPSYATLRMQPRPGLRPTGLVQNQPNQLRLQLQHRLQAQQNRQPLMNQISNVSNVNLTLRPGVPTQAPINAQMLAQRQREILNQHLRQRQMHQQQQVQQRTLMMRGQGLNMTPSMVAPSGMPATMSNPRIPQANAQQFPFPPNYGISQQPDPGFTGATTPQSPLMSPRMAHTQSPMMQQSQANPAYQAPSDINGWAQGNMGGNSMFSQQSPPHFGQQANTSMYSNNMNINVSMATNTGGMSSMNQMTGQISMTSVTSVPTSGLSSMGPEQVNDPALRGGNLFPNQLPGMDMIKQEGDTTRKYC
Chain of DNA dC->dU-editing enzyme APOBEC-3A (P31941 whole entry): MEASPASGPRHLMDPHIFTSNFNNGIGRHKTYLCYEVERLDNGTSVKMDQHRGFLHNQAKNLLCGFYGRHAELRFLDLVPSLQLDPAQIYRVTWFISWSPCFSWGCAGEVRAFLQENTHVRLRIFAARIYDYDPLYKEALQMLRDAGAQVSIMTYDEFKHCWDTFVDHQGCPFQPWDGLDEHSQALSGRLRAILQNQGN

**Q.** What does the source list for `COc1cccc(OC)c1C(=O)Nc1nnc(-c2cccs2)s1`?
**A.** EC50 [1]: 22 µM (not active); EC50 [2]: 17.7 µM (inactive); EC50 [3]: > 79.4 µM (not active)

**Q.** Which IC50 [4] does the source give for `CCN1CCN(S(=O)(=O)c2ccc(Cl)c(C(=O)N(C)C(c3ccccc3)c3ccccc3)c2)CC1` here?
**A.** Its IC50 is 5.67 µM (active).

**Q.** And the IC50 [5]?
**A.** The IC50 was 4.6 µM (active).

**Q.** Which IC50 (cells) does the source give for `CN(C)CC(C(=O)c1ccccc1)c1ccccc1` (stereo not drawn) here?
**A.** The IC50 was 4.64 µM (active).

**Q.** What about the CC50 [6] of the same compound?
**A.** Its CC50 is 10.6 µM (active).

**Q.** And the AC50 [7]?
**A.** Its AC50 is 19.2 µM (active).

**Q.** What about the EC50 [8] of the same compound?
**A.** The EC50 was > 30 µM (not active).

**Q.** What about the EC50 [9] of the same compound?
**A.** The EC50 was 5.35 µM (active).

**Q.** And the AC50 [10]?
**A.** Its AC50 is 8.54 µM (active).

**Q.** What about the AC50 (INS1) of the same compound?
**A.** The AC50 was 7.43 µM (active).

**Q.** And the CC50 [11]?
**A.** The CC50 was 7.72 µM (active).

**Q.** What about the EC50 [12] of the same compound?
**A.** Its EC50 is 2.99 µM (active).

**Q.** What about the CC50 [13] of the same compound?
**A.** The CC50 was 12.9 µM (active).

**Q.** And the EC50 [14]?
**A.** Its EC50 is 3.6 µM (active).

**Q.** And the EC50 (H4)?
**A.** The EC50 was > 120 µM (not active).

**Q.** And the EC50 [15]?
**A.** Its EC50 is > 120 µM (not active).

**Q.** And the EC50 [16]?
**A.** Its EC50 is > 120 µM (not active).

**Q.** And the AC50 [17]?
**A.** The AC50 was 2.8 µM (active).

**Q.** For `Cc1cc(NC(=O)CCN2C(=O)/C(=C/c3ccccc3F)SC2=S)no1`, which IC50 (Coagulation factor XII) is on record?
**A.** Its IC50 is > 50 µM (inactive).

**Q.** Which IC50 [18] does the source give for `c1cncc(-c2cnc3ccccc3c2)c1` here?
**A.** The IC50 was > 100 µM (not active).

**Q.** What about the IC50 [19] of the same compound?
**A.** Its IC50 is > 100 µM (inactive).

**Q.** What does the source list for `COc1ccc2nc(C)cc(N/N=C/c3ccccc3)c2c1`?
**A.** IC50 (cells): 0.52 µM (active); CC50 [6]: 6.15 µM (active); AC50 [20]: 5.6 µM (active); AC50 (INS1): 2.68 µM (active); CC50 [11]: 10.9 µM (active); IC50 [21]: > 20 µM (inactive); CC50 [13]: 9.19 µM (active)

**Q.** Which IC50 [22] does the source give for `Cc1ccccc1N=Nc1c(C)[nH]n(-c2ccccc2)c1=O` here?
**A.** Its IC50 is 50 µM (inactive).

**Q.** Which results are given for `Cn1cnc(-c2cccnc2)c1`?
**A.** IC50 [18]: > 100 µM (not active); IC50 [19]: > 100 µM (inactive)

From ChEMBL document CHEMBL1201862, “PubChem BioAssay data set” (2004)
